# Test results as given in PubChem BioAssay AID2060615 (Molecular Pharmacology Branch, DTP, NCI, 2025).
# System: 496974-208-R-J2-PDC complex spheroids, growth % test/control
# Assay: Anticancer human tumor 496974-208-R-J2-PDC patient-derived pancreatic carcinoma cell line growth inhibition [CLK]
# Conditions: for IC50: curve of first compound; for viability, T/C: stronger effect = lower value
# Outline: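 Multi-cell-type spheroids combined patient-derived tumor cells with HUVEC endothelial cells and human mesenchymal stem cells. Paired agents were dosed in half-log steps down from about clinical Cmax, or from 10 microM where Cmax was unknown.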
# [1] = second compound 0.0316 µM, first compound 0.0316 µM
# [2] = second compound 0.0316 µM, first compound 0.1 µM
# [3] = second compound 0.0316 µM, first compound 0.316 µM
# [4] = second compound 0.0316 µM, first compound 1 µM
# [5] = second compound 0.0316 µM, first compound 3.16 µM
# [6] = second compound 0.0316 µM, first compound 10 µM
# [7] = second compound 0.1 µM, first compound 0.0316 µM
# [8] = second compound 0.1 µM, first compound 0.1 µM
# [9] = second compound 0.1 µM, first compound 0.316 µM
# [10] = second compound 0.1 µM, first compound 1 µM
# [11] = second compound 0.1 µM, first compound 3.16 µM
# [12] = second compound 0.1 µM, first compound 10 µM
# [13] = second compound 0.316 µM, first compound 0.0316 µM
# [14] = second compound 0.316 µM, first compound 0.1 µM
# [15] = second compound 0.316 µM, first compound 0.316 µM
# [16] = second compound 0.316 µM, first compound 1 µM
# [17] = second compound 0.316 µM, first compound 3.16 µM
# [18] = second compound 0.316 µM, first compound 10 µM
# [19] = second compound 1 µM, first compound 0.0316 µM
# [20] = second compound 1 µM, first compound 0.1 µM
# [21] = second compound 1 µM, first compound 0.316 µM
# [22] = second compound 1 µM, first compound 1 µM
# [23] = second compound 1 µM, first compound 3.16 µM
# [24] = second compound 1 µM, first compound 10 µM
# [25] = second compound 3.16 µM, first compound 0.0316 µM
# [26] = second compound 3.16 µM, first compound 0.1 µM
# [27] = second compound 3.16 µM, first compound 0.316 µM
# [28] = second compound 3.16 µM, first compound 1 µM
# [29] = second compound 3.16 µM, first compound 3.16 µM
# [30] = second compound 3.16 µM, first compound 10 µM
# [31] = second compound 10 µM, first compound 0.0316 µM
# [32] = second compound 10 µM, first compound 0.1 µM
# [33] = second compound 10 µM, first compound 0.316 µM
# [34] = second compound 10 µM, first compound 1 µM
# [35] = second compound 10 µM, first compound 3.16 µM
# [36] = second compound 10 µM, first compound 10 µM
# [37] = second compound 0.0316 µM, first compound 0.00316 µM
# [38] = second compound 0.0316 µM, first compound 0.01 µM
# [39] = second compound 0.1 µM, first compound 0.00316 µM
# [40] = second compound 0.1 µM, first compound 0.01 µM
# [41] = second compound 0.316 µM, first compound 0.00316 µM
# [42] = second compound 0.316 µM, first compound 0.01 µM
# [43] = second compound 1 µM, first compound 0.00316 µM
# [44] = second compound 1 µM, first compound 0.01 µM
# [45] = second compound 3.16 µM, first compound 0.00316 µM
# [46] = second compound 3.16 µM, first compound 0.01 µM
# [47] = second compound 10 µM, first compound 0.00316 µM
# [48] = second compound 10 µM, first compound 0.01 µM
# 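Further: spheroids exposed to the drugs for 7 days before readout.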
# 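Wherever viability, T/C is given: 100% = DMSO vehicle control wells.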
compound,measurement,setting,value
CC(CO)NC(=O)c1cc(-c2ccc(Cl)cc2)nn(-c2cnn(C)c2)c1=O (stereo not drawn) + CNC(=O)c1ccc(Nc2nc(OC3CCCC3)c3c(-c4ccc5nc(C)oc5c4)c[nH]c3n2)c(OC)c1,IC50,second compound 0.0316 µM,> 10000 nM
same,IC50,second compound 0.1 µM,6650 nM
same,IC50,second compound 0.316 µM,6970 nM
same,IC50,second compound 1 µM,3290 nM
same,IC50,second compound 3.16 µM,5160 nM
same,IC50,second compound 10 µM,4140 nM
same,"viability, T/C",[1],103%
same,"viability, T/C",[2],91.4%
same,"viability, T/C",[3],92.8%
same,"viability, T/C",[4],90.4%
same,"viability, T/C",[5],89.1%
same,"viability, T/C",[6],55%
same,"viability, T/C",[7],87.3%
same,"viability, T/C",[8],74.5%
same,"viability, T/C",[9],80.8%
same,"viability, T/C",[10],63.1%
same,"viability, T/C",[11],65.4%
same,"viability, T/C",[12],42.6%
same,"viability, T/C",[13],79.2%
same,"viability, T/C",[14],67.3%
same,"viability, T/C",[15],72.6%
same,"viability, T/C",[16],69%
same,"viability, T/C",[17],59.4%
same,"viability, T/C",[18],44.9%
same,"viability, T/C",[19],71%
same,"viability, T/C",[20],71.8%
same,"viability, T/C",[21],63.5%
same,"viability, T/C",[22],59.7%
same,"viability, T/C",[23],50.9%
same,"viability, T/C",[24],37.9%
same,"viability, T/C",[25],62.4%
same,"viability, T/C",[26],57.9%
same,"viability, T/C",[27],52%
same,"viability, T/C",[28],58.4%
same,"viability, T/C",[29],56.6%
same,"viability, T/C",[30],41.1%
same,"viability, T/C",[31],55.5%
same,"viability, T/C",[32],54.8%
same,"viability, T/C",[33],49.8%
same,"viability, T/C",[34],47.1%
same,"viability, T/C",[35],56.5%
same,"viability, T/C",[36],41%
CC(Nc1ccc2c(c1)OCCn1cc(N3C(=O)OCC3C(F)F)nc1-2)C(N)=O (stereo not drawn) + CNC(=O)c1ccc(Nc2nc(OC3CCCC3)c3c(-c4ccc5nc(C)oc5c4)c[nH]c3n2)c(OC)c1,IC50,second compound 0.0316 µM,150 nM
same,IC50,second compound 0.1 µM,184 nM
same,IC50,second compound 0.316 µM,95.5 nM
same,IC50,second compound 1 µM,68.7 nM
same,IC50,second compound 3.16 µM,49.2 nM
same,IC50,second compound 10 µM,< 31.6 nM
same,"viability, T/C",[1],87.2%
same,"viability, T/C",[2],55.2%
same,"viability, T/C",[3],38.5%
same,"viability, T/C",[4],23.6%
same,"viability, T/C",[5],16.9%
same,"viability, T/C",[6],9.1%
same,"viability, T/C",[7],70.5%
same,"viability, T/C",[8],63.7%
same,"viability, T/C",[9],37.5%
same,"viability, T/C",[10],23.7%
same,"viability, T/C",[11],15.5%
same,"viability, T/C",[12],10.6%
same,"viability, T/C",[13],76.6%
same,"viability, T/C",[14],48.4%
same,"viability, T/C",[15],30.1%
same,"viability, T/C",[16],23.4%
same,"viability, T/C",[17],15.5%
same,"viability, T/C",[18],9.62%
same,"viability, T/C",[19],58.8%
same,"viability, T/C",[20],46.8%
same,"viability, T/C",[21],32.3%
same,"viability, T/C",[22],20.1%
same,"viability, T/C",[23],18.4%
same,"viability, T/C",[24],9.57%
same,"viability, T/C",[25],56.9%
same,"viability, T/C",[26],38.6%
same,"viability, T/C",[27],28.3%
same,"viability, T/C",[28],20%
same,"viability, T/C",[29],17.6%
same,"viability, T/C",[30],12.8%
same,"viability, T/C",[31],47.2%
same,"viability, T/C",[32],38.8%
same,"viability, T/C",[33],24.6%
same,"viability, T/C",[34],19%
same,"viability, T/C",[35],15.6%
same,"viability, T/C",[36],13.7%
CCN1CCN(Cc2ccc(Nc3ncc(F)c(-c4cc(F)c5nc(C)n(C(C)C)c5c4)n3)nc2)CC1 + CNC(=O)c1ccc(Nc2nc(OC3CCCC3)c3c(-c4ccc5nc(C)oc5c4)c[nH]c3n2)c(OC)c1,IC50,second compound 0.0316 µM,> 1000 nM
same,IC50,second compound 0.1 µM,> 1000 nM
same,IC50,second compound 0.316 µM,> 1000 nM
same,IC50,second compound 1 µM,> 1000 nM
same,IC50,second compound 3.16 µM,> 1000 nM
same,IC50,second compound 10 µM,> 1000 nM
same,"viability, T/C",[37],91.7%
same,"viability, T/C",[38],90.2%
same,"viability, T/C",[1],90.1%
same,"viability, T/C",[2],94.2%
same,"viability, T/C",[3],98%
same,"viability, T/C",[4],98.4%
same,"viability, T/C",[39],89.5%
same,"viability, T/C",[40],88.9%
same,"viability, T/C",[7],87.9%
same,"viability, T/C",[8],84.2%
same,"viability, T/C",[9],86.8%
same,"viability, T/C",[10],97.5%
same,"viability, T/C",[41],81.3%
same,"viability, T/C",[42],81.9%
same,"viability, T/C",[13],87.8%
same,"viability, T/C",[14],81.4%
same,"viability, T/C",[15],85.4%
same,"viability, T/C",[16],94.8%
same,"viability, T/C",[43],78.7%
same,"viability, T/C",[44],81.2%
same,"viability, T/C",[19],77.7%
same,"viability, T/C",[20],76.3%
same,"viability, T/C",[21],92.6%
same,"viability, T/C",[22],81.8%
same,"viability, T/C",[45],72.5%
same,"viability, T/C",[46],71.9%
same,"viability, T/C",[25],66.7%
same,"viability, T/C",[26],77.6%
same,"viability, T/C",[27],69.3%
same,"viability, T/C",[28],73.7%
same,"viability, T/C",[47],63%
same,"viability, T/C",[48],61.7%
same,"viability, T/C",[31],67.7%
same,"viability, T/C",[32],69.3%
same,"viability, T/C",[33],74.7%
same,"viability, T/C",[34],75%
COc1c(OCCCN2CCOCC2)ccc2c3n(c(=NC(=O)c4cnc(N)nc4)nc12)CCN3 + CNC(=O)c1ccc(Nc2nc(OC3CCCC3)c3c(-c4ccc5nc(C)oc5c4)c[nH]c3n2)c(OC)c1,IC50,second compound 0.0316 µM,17.4 nM
same,IC50,second compound 0.1 µM,16.2 nM
same,IC50,second compound 0.316 µM,11.1 nM
same,IC50,second compound 1 µM,7.96 nM
same,IC50,second compound 3.16 µM,4.74 nM
same,IC50,second compound 10 µM,3.25 nM
same,"viability, T/C",[37],88.2%
same,"viability, T/C",[38],68.6%
same,"viability, T/C",[1],29.4%
same,"viability, T/C",[2],14.5%
same,"viability, T/C",[3],9.14%
same,"viability, T/C",[4],4.1%
same,"viability, T/C",[39],76.9%
same,"viability, T/C",[40],64.2%
same,"viability, T/C",[7],30.2%
same,"viability, T/C",[8],16.1%
same,"viability, T/C",[9],12.5%
same,"viability, T/C",[10],7.78%
same,"viability, T/C",[41],70.3%
same,"viability, T/C",[42],53.4%
same,"viability, T/C",[13],24.8%
same,"viability, T/C",[14],15.1%
same,"viability, T/C",[15],11.2%
same,"viability, T/C",[16],5.48%
same,"viability, T/C",[43],61.2%
same,"viability, T/C",[44],47.7%
same,"viability, T/C",[19],27.5%
same,"viability, T/C",[20],14%
same,"viability, T/C",[21],12.3%
same,"viability, T/C",[22],5.46%
same,"viability, T/C",[45],54.4%
same,"viability, T/C",[46],42%
same,"viability, T/C",[25],26.1%
same,"viability, T/C",[26],16.1%
same,"viability, T/C",[27],8.87%
same,"viability, T/C",[28],6.58%
same,"viability, T/C",[47],50%
same,"viability, T/C",[48],37.7%
same,"viability, T/C",[31],21.9%
same,"viability, T/C",[32],12.4%
same,"viability, T/C",[33],9.58%
same,"viability, T/C",[34],3.59%
